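1) Cells in 96-well plates. 2) Compound, 48 h, 5 concentrations. 3) Linear interpolation between surrounding doses. 4) Unreached endpoint = highest concentration. TGI is the concentration that stops growth completely.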
Assays:
Test in all cases: NCI tumour cell line growth inhibition, 48 h
M14 melanoma = system: M14 melanoma
NCI-H226 lung = system: NCI-H226 lung
MCF7 breast = system: MCF7 breast
MDA-MB-231 breast = system: MDA-MB-231 breast
EKVX NSCLC = system: EKVX NSCLC
OVCAR-3 ovarian = system: OVCAR-3 ovarian
HOP-62 NSCLC = system: HOP-62 NSCLC
786-0 renal = system: 786-0 renal
MDA-MB-435 = system: MDA-MB-435
HL-60(TB) leukemia = system: HL-60(TB) leukemia
HS 578T breast = system: HS 578T breast
SN12C renal = system: SN12C renal
NCI/ADR-RES ovarian = system: NCI/ADR-RES ovarian
CAKI-1 renal = system: CAKI-1 renal
BT-549 breast = system: BT-549 breast
HCT-116 colon = system: HCT-116 colon
TK-10 renal = system: TK-10 renal
RPMI-8226 leukemia = system: RPMI-8226 leukemia
SNB-19 CNS = system: SNB-19 CNS
A498 renal = system: A498 renal
SF-295 CNS = system: SF-295 CNS
CCRF-CEM leukemia = system: CCRF-CEM leukemia
IGROV1 ovarian = system: IGROV1 ovarian
K-562 leukemia = system: K-562 leukemia
COLO 205 colon = system: COLO 205 colon
HOP-92 NSCLC = system: HOP-92 NSCLC
SNB-75 CNS = system: SNB-75 CNS
NCI-H23 lung = system: NCI-H23 lung
UACC-257 melanoma = system: UACC-257 melanoma
SF-268 CNS = system: SF-268 CNS
A549 NSCLC = system: A549 NSCLC
HCC-2998 colon = system: HCC-2998 colon
ACHN renal = system: ACHN renal
SK-MEL-28 melanoma = system: SK-MEL-28 melanoma
OVCAR-5 ovarian = system: OVCAR-5 ovarian
SW-620 colon = system: SW-620 colon
SK-MEL-5 melanoma = system: SK-MEL-5 melanoma
HCT-15 colon = system: HCT-15 colon
SK-OV-3 ovarian = system: SK-OV-3 ovarian
KM12 colon = system: KM12 colon
OVCAR-4 ovarian = system: OVCAR-4 ovarian
LOX IMVI melanoma = system: LOX IMVI melanoma
UO-31 renal = system: UO-31 renal
UACC-62 melanoma = system: UACC-62 melanoma
MDA-N = system: MDA-N
OVCAR-8 ovarian = system: OVCAR-8 ovarian
HT29 colon = system: HT29 colon
SF-539 CNS = system: SF-539 CNS
MOLT-4 leukemia = system: MOLT-4 leukemia
U251 CNS = system: U251 CNS
NCI-H522 lung = system: NCI-H522 lung
DU-145 prostate = system: DU-145 prostate
MALME-3M melanoma = system: MALME-3M melanoma
NCI-H460 lung = system: NCI-H460 lung
SK-MEL-2 melanoma = system: SK-MEL-2 melanoma
SR leukemia = system: SR leukemia
T-47D breast = system: T-47D breast
PC-3 prostate = system: PC-3 prostate
RXF 393 renal = system: RXF 393 renal

Measured: TGI

CC1=NN(c2nc(N)nc(-c3sccc3N)n2)C(C)(C)C1
> 100 µM: M14 melanoma | NCI-H226 lung | MCF7 breast | MDA-MB-231 breast | EKVX NSCLC | OVCAR-3 ovarian | HOP-62 NSCLC | 786-0 renal | MDA-MB-435 | HL-60(TB) leukemia | HS 578T breast | SN12C renal | NCI/ADR-RES ovarian | CAKI-1 renal | BT-549 breast | HCT-116 colon | TK-10 renal | SNB-19 CNS | A498 renal | SF-295 CNS | CCRF-CEM leukemia | IGROV1 ovarian | K-562 leukemia | COLO 205 colon | HOP-92 NSCLC | SNB-75 CNS | NCI-H23 lung | UACC-257 melanoma | SF-268 CNS | A549 NSCLC | HCC-2998 colon | ACHN renal | SK-MEL-28 melanoma | OVCAR-5 ovarian | SW-620 colon | SK-MEL-5 melanoma | HCT-15 colon | SK-OV-3 ovarian | KM12 colon | OVCAR-4 ovarian | LOX IMVI melanoma | UO-31 renal | UACC-62 melanoma | MDA-N | OVCAR-8 ovarian | HT29 colon | SF-539 CNS | MOLT-4 leukemia | U251 CNS | NCI-H522 lung | DU-145 prostate | MALME-3M melanoma | NCI-H460 lung
70.9 µM: RPMI-8226 leukemia

O=C(CCc1cc(O)cc(O)c1)NCCCNC(=O)CCc1cc(O)cc(O)c1
> 100 µM: M14 melanoma | NCI-H226 lung | MCF7 breast | MDA-MB-231 breast | EKVX NSCLC | OVCAR-3 ovarian | HOP-62 NSCLC | SK-MEL-2 melanoma | 786-0 renal | MDA-MB-435 | SN12C renal | NCI/ADR-RES ovarian | CAKI-1 renal | BT-549 breast | HCT-116 colon | TK-10 renal | SR leukemia | RPMI-8226 leukemia | SNB-19 CNS | A498 renal | SF-295 CNS | CCRF-CEM leukemia | IGROV1 ovarian | K-562 leukemia | COLO 205 colon | HOP-92 NSCLC | NCI-H23 lung | UACC-257 melanoma | SF-268 CNS | A549 NSCLC | T-47D breast | HCC-2998 colon | ACHN renal | SK-MEL-28 melanoma | PC-3 prostate | OVCAR-5 ovarian | SW-620 colon | SK-MEL-5 melanoma | HCT-15 colon | SK-OV-3 ovarian | KM12 colon | OVCAR-4 ovarian | LOX IMVI melanoma | UO-31 renal | UACC-62 melanoma | MDA-N | OVCAR-8 ovarian | HT29 colon | SF-539 CNS | MOLT-4 leukemia | U251 CNS | NCI-H522 lung | DU-145 prostate | RXF 393 renal | MALME-3M melanoma

From PubChem BioAssay (NCI)
